What was measured:
[1] = target: T1, 5-hydroxytryptamine receptor 1A (Homo sapiens) (UniProt P08908); assay: Displacement of [3H]LSD from human 5-HT1A receptor expressed in CHO-K1 cells at 10 uM; type: cell-based
T1 sequence (whole entry): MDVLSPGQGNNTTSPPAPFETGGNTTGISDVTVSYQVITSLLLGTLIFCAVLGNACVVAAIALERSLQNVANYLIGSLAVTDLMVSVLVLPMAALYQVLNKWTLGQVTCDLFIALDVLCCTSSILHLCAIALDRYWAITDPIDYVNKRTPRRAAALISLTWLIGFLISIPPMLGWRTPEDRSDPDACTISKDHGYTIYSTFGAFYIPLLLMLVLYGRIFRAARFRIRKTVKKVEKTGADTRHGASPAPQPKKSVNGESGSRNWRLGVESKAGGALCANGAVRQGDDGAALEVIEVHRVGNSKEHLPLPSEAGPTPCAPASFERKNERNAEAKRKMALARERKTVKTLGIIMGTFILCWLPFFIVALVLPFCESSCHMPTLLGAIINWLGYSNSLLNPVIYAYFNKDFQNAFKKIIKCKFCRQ

[2] = target: 5-hydroxytryptamine receptor 7 (Homo sapiens) (UniProt P34969); assay: Displacement of […] from human 5-HT7 receptor expressed in HEK293 cells at 10 uM; type: cell-based
Sequence of 5-hydroxytryptamine receptor 7 (Homo sapiens) (P34969 whole entry): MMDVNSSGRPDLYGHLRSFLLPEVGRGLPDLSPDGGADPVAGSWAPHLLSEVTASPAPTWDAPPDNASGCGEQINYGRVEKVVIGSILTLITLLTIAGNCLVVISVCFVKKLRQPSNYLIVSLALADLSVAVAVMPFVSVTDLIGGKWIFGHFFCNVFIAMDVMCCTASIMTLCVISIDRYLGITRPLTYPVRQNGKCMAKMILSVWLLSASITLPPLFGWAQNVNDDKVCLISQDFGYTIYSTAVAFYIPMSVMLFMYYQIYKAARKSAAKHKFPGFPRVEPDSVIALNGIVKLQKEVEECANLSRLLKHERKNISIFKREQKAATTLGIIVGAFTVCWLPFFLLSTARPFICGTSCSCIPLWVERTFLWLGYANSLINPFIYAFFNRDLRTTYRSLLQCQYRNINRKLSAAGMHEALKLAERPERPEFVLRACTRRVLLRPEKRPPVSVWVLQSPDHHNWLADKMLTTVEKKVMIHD

Work on `CC(C)c1cc(CNCCN2CCN(C(=O)c3cc(Cl)cc(Cl)c3)CC2)on1` yielded an inhibition [1] of 43.2% and an inhibition [2] of -0.2%.
`CC(C)(C)CCNCCN1CCN(C(=O)c2cc(C(F)(F)F)cc(C(F)(F)F)c2)CC1` showed an inhibition [1] of -4.4% and an inhibition [2] of -0.3%.
In the case of `O=C(c1cc(Cl)cc(Cl)c1)N1CCN(CCNCCCc2nc3ccccc3[nH]2)CC1`, the inhibition [1] is reported as 90.1% and the inhibition [2] is reported as 62.7%.
`CC(C)c1cc(CNCCN2CCN(C(=O)c3cc(C(F)(F)F)cc(C(F)(F)F)c3)CC2)on1` was tested, and the inhibition [1] was 13% and the inhibition [2] was -0.3%.
With `CC(C)(C)CCNCCN1CCN(C(=O)c2ccc(Cl)c(Cl)c2)CC1` the inhibition [1] was 65.2% and the inhibition [2] was 2%.
`O=C(c1ccc(Cl)cc1)N1CCN(CCNCCCc2nc3ccccc3[nH]2)CC1` was tested, and the inhibition [1] was 47.5% and the inhibition [2] was 36.8%.
`CC(C)c1cc(CNCCN2CCN(C(=O)c3ccc(Cl)cc3)CC2)on1` was tested, and the inhibition [1] was 56.5% and the inhibition [2] was 93.6%.
For `CC(C)(C)CCNCCN1CCN(C(=O)c2ccc(Cl)cc2)CC1`, the inhibition [1] was 36.7% and the inhibition [2] was -0.6%.
`O=C(c1cc(C(F)(F)F)cc(C(F)(F)F)c1)N1CCN(CCNCCCc2nc3ccccc3[nH]2)CC1` gave an inhibition [1] of 87.7% and an inhibition [2] of 45.4%.
`CC(C)(C)CCNCCN1CCN(C(=O)c2cc(Cl)cc(Cl)c2)CC1` was tested, and the inhibition [1] was 33.7% and the inhibition [2] was -0.6%.
In the case of `CC(C)c1cc(CNCCN2CCN(C(=O)c3ccc(Cl)c(Cl)c3)CC2)on1`, the inhibition [1] is reported as 76.4% and the inhibition [2] is reported as 16.1%.
Work on `O=C(c1ccc(Cl)c(Cl)c1)N1CCN(CCNCCCc2nc3ccccc3[nH]2)CC1` yielded an inhibition [1] of 49.5% and an inhibition [2] of 56.2%.
